Assay results as given in patent US6955873B1, “Diagnosis and treatment system for reward deficiency syndrome (RDS) and related behaviors” (priority 1999, dated 2005).
Read-outs that look alike come from different tables or passages of the source.

How the values were obtained:
[1] = system: patients following weight reduction; conditions: after six months; cited from earlier work
[2] = system: obese subjects genotyped for the dopamine D2 receptor gene (DRD2); test: Chromium picolinate body composition response as a function of DRD2 Taq1 A1 genotype; type: in vivo, human
Excerpt: In order to resolve the issue of non-responders, the inventor decided to test the hypothesis that typing the obese patients by genotyping the DRD2 gene prior to treatment with CrP would result in a differential treatment outcome. […] One of us (KB) predicted carriers of the DRD2 A2 allele would retain the positive metabolic effects of P, but in contrast the DRD2 A1 carriers, because there is a proclivity to increased carbohydrate binging, would possibly mask the metabolic effects of CrP on weight loss and change in body fat attenuating any positive effects. One prophetic example as described earlier (see page 48):
The inventor genotyped 130 obese subjects for the dopamine D2 receptor gene (DRD2) utilizing standard PCR techniques. The subjects were assessed for scale weight and for percent body fat using dual energy X-ray absorptiometry (DEXAR). The subjects were divided into matched placebo and chromium picolinate (CrP) groups (400μg. per day). The sample was separated into two independent groups; those with either an A1/A1 or A1/A2 allele and those with only the A2/A2 allelic pattern. Each of these groups was tested separately for differences between placebo and treatment means for a variety of measures of weight change. These measures consisted of calculations of the percent of fat weight change; the change in fat weight; the change in body weight; the change in free mass, the percent change of fat weight; the body composition index; and the body weight change in kilograms.

[3] = system: obese subjects genotyped for the dopamine D2 receptor gene (DRD2); conditions: 400 mcg of CrP/day, cited from earlier work
[4] = system: young obese women; conditions: cited from earlier work
[5] = system: over-eating patients; conditions: 400 mcg vs placebo, cited from earlier work
[6] = system: over-eating patients; conditions: 200 and 400 mcg, compared with placebo; cited from earlier work

## Chromium Picolinate
[1]
  non-fat related weight loss: lean body mass and avoided non-fat related weight
[2]; A2/A2, p<0.012
  body weight change in kilograms, treatment vs placebo: significant
[2]; A2/A2, p<0.041
  change in fat weight, treatment vs placebo: significant
[2]; A2/A2, p<0.044
  percent change in weight, treatment vs placebo: significant
[2]; DRD2 A2 allele carriers versus DRD2 A1 allele carriers, 400 ug per day
  responsiveness to the effects of CrP: more responsive
[2]; subjects possessing a DRD2 A1 allele
  any parameter of weight change, treatment vs placebo: no significance
[3]; A1/A2 and A1/A1 carriers, listed as CrP
  changes in fat weight, body weight, percent change in weight, body weight changes in kgms: non-
[3]; A2/A2 group
  changes in fat weight, body weight, percent change in weight, body weight changes in kgms: changes in kgms were all significant in A2/A2 group,
[4]; CrP supplementation alone, 43 pts, 63 days
  weight gain: CrP supplementation resulted in significant weight
[4]; exercise training combined with CrP supplementation
  weight loss: supplementation resulted in significant weight loss
[5]; p < 0.001
  reduction in body fat: greater reduction in body fat (p < 0.001), significantly
  weight lost: group, 400 mcg CrP group lost significantly more
[5]; p < 0.004
  body composition: improve body composition (p < 0.004).
  body fat lost: group, 400 mcg CrP group lost significantly more
[6]
  changes in Body Mass composition indicies: 200 and 400 mcg of CrP brought about significant
